For orientation: IC50 means the midpoint of a concentration-inhibition curve.

The source of these data is US20170157301A1, “LEOLIGIN DERIVATIVES AS SMOOTH MUSCLE CELL PROLIFERATION INHIBITORS” (TECHNISCHE UNIVERSITAET WIEN, priority 2014, published 2017).

Assay [1] concerns SMCs in relation to ECs. Briefly: activity ratio: efficiency towards SMCs / efficiency towards ECs. The class given is cell-based. Particulars: for a.r. code: activity ratio class, order in Table 1 follows the calculated values. The procedure:
For determination of vascular SMC proliferation, 0.5×10^4 viable rat aortic SMCs per well were seeded in SMC growth medium (DMEM/F12 medium with 20% serum, 30 μg/mL Gentamicin and 15 ng/mL Amphotericin) in 96-well plates. 24 h later, the medium was removed, the cells were washed once with SMC starvation medium (DMEM/F12 medium with 0.1% serum, 0.2% BSA, 30 μg/mL Gentamicin and 15 ng/mL Amphotericin) and incubated in starvation medium for further 24 h.
The quiescent cells were then pretreated for 30 min with the test compounds and induced to proliferate with 20 ng/mL platelet-derived growth factor (PDGF). Unstimulated cells were utilized for normalization and estimation of the basal level of proliferation. The final concentration of the solvent vehicle, dimethyl sulfoxide (DMSO), was the same (0.1%) in all wells. 48 h later, the SMC proliferation was quantified by resazurin dye conversion for 2 h as previously described (H. Joa et al., J. Nat. Prod. 74(6), 1513-6 (2011)).
For determination of endothelial cell proliferation, 0.5×10^4 HUVECtert immortalized human umbilical vein endothelial cells (H. B. Schiller et al., Mol. Biol. Cell. 20(3), 745-756 (2009)) were seeded in 96-well plates for 24 h in HUVEC Complete Medium (EBM™ growth medium supplemented with 10% fetal bovine serum, EBM™ SingleQuots (Lonza, Basel, Switzerland), 100 U/mL benzylpenicillin, 100 μg/mL streptomycin, and 1% amphotericin). Afterwards, the medium was exchanged with fresh HUVEC Complete Medium and cells were treated with the indicated compounds for 48 h. After the end of the incubation period, the medium was removed, the cells were washed once with 200 μL/well PBS, and treated with 150 μL HUVEC Complete Medium containing 10 μg/mL resazurin. 2 h later, the fluorescence was measured at a wavelength of 580 nm, with excitation wavelength 535 nm in a 96-well plate reader (Tecan GENios Pro; Tecan Group Ltd., Mannedorf, Switzerland).
In every case, the percentage of viable cells was subtracted from 1, in order to obtain a measure of efficiency of the test compounds towards each particular type of cells, and subsequently, the efficiency quotient towards SMCs and ECs was calculated and taken as the “activity ratio” and thus as a measure of selective efficiency of each test compound towards SMCs in relation to ECs. For example, the synthetic Leoligin with the bio ID 2418 prepared in Comparative Example 27 as compound 10-22 gave the following results:
Due to the usual fluctuations in determining surviving cells, which amount to approximately ±10%, and due to the relatively strong resulting fluctuations in calculating quotients—especially if the inhibitory effect of said novel compounds towards ECs is very poor—said threshold value of 1.50 for the activity ratio, as already mentioned above, was introduced.
In the following, a table listing every compound prepared in examples and comparative Examples for which an activity ratio (a.r.) of >1.0 was determined, is given.

The test system of assay [2] is SMCs. Particulars: cited from earlier work.
Assay [3] concerns SMCs. In words: IC50 of Leoligin for SMCs (A. Knolz, Master's Thesis, University of Innsbruck, 2008). In kind it is cell-based.
Assay [4] has as its system HUVECtert immortalized human umbilical vein endothelial cells. Briefly: endothelial cell proliferation (resazurin). The class given is cell-based. In general terms: The colour change of resazurin is a common sign of viable cells or microbes.
Assay [5] has as its system rat aortic SMCs. Briefly: vascular SMC proliferation (PDGF-induced, resazurin conversion). In kind it is cell-based.
The test system of assay [6] is ECs. The note with it: cited from earlier work.

Regarding `COc1ccc(C[C@H]2CO[C@H](c3ccc(OC)c(OC)c3)[C@H]2COC(=O)/C=C/c2ccccc2)cc1OC` [Example 24, ((2S,3R,4R)-4-(3,4-dimethoxybenzyl)-2-(3,4-dimethoxyphenyl)tetrahydrofuran-3-yl)methyl cinnamate], the a.r. code entry in assay [1] is “AA (a.r. ≧ 2.0)”. Regarding `COc1ccc(C[C@H]2CO[C@H](c3ccc(OC)c(OC)c3)[C@H]2COC(=O)C=C(C)C)cc1OC` [Example 25, ((2S,3R,4R)-4-(3,4-dimethoxybenzyl)-2-(3,4-dimethoxyphenyl)tetrahydrofuran-3-yl)methyl 3-methylbut-2-enoate], the a.r. code entry in assay [1] is listed as “AA (a.r. ≧ 2.0)”. With `COc1ccc(C[C@H]2CO[C@H](c3ccccc3)[C@H]2COC(=O)C2CCCC2)cc1OC` [Example 26, ((2S,3R,4R)-4-(3,4-dimethoxybenzyl)-2-phenyltetrahydrofuran-3-yl)methyl cyclopentanecarboxylate], the a.r. code result in assay [1] is on record as “A (a.r. ≧ 1.50)”. With `COc1ccc(C[C@H]2CO[C@H](c3ccc(OC)c(OC)c3)[C@H]2COC(=O)CC23CC4CC(CC(C4)C2)C3)cc1OC` [Example 27, ((2S,3R,4R)-4-(3,4-dimethoxybenzyl)-2-(3,4-dimethoxyphenyl)tetrahydrofuran-3-yl) methyl 2-(adamantan-1-yl)acetate], the a.r. code result in assay [1] is “AA (a.r. ≧ 2.0)”.

`COc1ccc(C[C@H]2CO[C@H](c3ccccc3)[C@H]2COC(=O)C2CCCCC2)cc1OC` [Example 28, ((2S,3R,4R)-4-(3,4-dimethoxybenzyl)-2-phenyltetrahydrofuran-3-yl)methyl cyclohexanecarboxylate]: the a.r. code entry in assay [1] is “A (a.r. ≧ 1.50)”.

For the molecule `COc1ccc(C[C@H]2CO[C@H](c3ccc(F)cc3)[C@H]2COC(=O)C2CCCC2)cc1OC` [Example 29, ((2S,3R,4R)-4-(3,4-dimethoxybenzyl)-2-(4-fluorophenyl)tetrahydrofuran-3-yl)-methyl cyclopentanecarboxylate], the a.r. code entry in assay [1] was “A (a.r. ≧ 1.50)”. Still for that read-out and setting: with `COc1ccc([C@H]2OC[C@H](Cc3ccc(C(C)(C)C)cc3)[C@@H]2COC(=O)C2CCCC2)cc1OC` [Example 30, ((2S,3R,4R)-4-(4-(tert-butyl)benzyl)-2-(3,4-dimethoxyphenyl)tetrahydrofuran-3-yl)methyl cyclopentanecarboxylate] the entry was “AA (a.r. ≧ 2.0)”; with `CCC(CC)C(=O)OC[C@H]1[C@@H](Cc2ccc(OC)c(OC)c2)CO[C@@H]1c1ccc(F)cc1` [Example 31, ((2S,3R,4R)-4-(3,4-dimethoxybenzyl)-2-(4-fluorophenyl)tetrahydrofuran-3-yl)-methyl 2-ethylbutanoate], “A (a.r. ≧ 1.50)”. For the molecule `COc1ccc(C[C@H]2CO[C@H](c3ccc(F)cc3)[C@H]2COC(=O)CC(C)C)cc1OC` [Example 32, ((2S,3R,4R)-4-(3,4-dimethoxybenzyl)-2-(4-fluorophenyl)tetrahydrofuran-3-yl)-methyl 3-methylbutanoate], the a.r. code result in assay [1] is on record as “AAA (a.r. ≧ 5.0)”. `COc1ccc(C[C@H]2CO[C@H](c3ccc(F)cc3)[C@H]2COC(=O)C2CCC2)cc1OC` [Example 33, ((2S,3R,4R)-4-(3,4-dimethoxybenzyl)-2-(4-fluorophenyl)tetrahydrofuran-3-yl)methyl cyclobutanecarboxylate]: the a.r. code result in assay [1] is on record as “AA (a.r. ≧ 2.0)”. As to `C/C=C(\C)C(=O)OC[C@H]1[C@@H](Cc2ccc(OC)c(OC)c2)CO[C@@H]1c1cc(OC)c(OC)c(OC)c1` [Example 34, (E)-((2S,3R,4R)-4-(3,4-dimethoxybenzyl)-2-(3,4,5-trimethoxyphenyl)tetra-hydrofuran-3-yl)methyl 2-methylbut-2-enoate], the a.r. code result in assay [1] is on record as “AAA (a.r. ≧ 5.0)”.

For the molecule `COc1ccc(C[C@H]2CO[C@H](c3cc(OC)c(OC)c(OC)c3)[C@H]2COC(=O)C2=CCCC2)cc1OC` [Example 35, ((2S,3R,4R)-4-(3,4-dimethoxybenzyl)-2-(3,4,5-trimethoxyphenyl)tetrahydro-furan-3-yl)methyl cyclopent-1-enecarboxylate], the a.r. code entry in assay [1] is listed as “AA (a.r. ≧ 2.0)”. Same read-out and setting: the same measure for `COc1ccc(C[C@H]2CO[C@H](c3cc(OC)c(OC)c(OC)c3)[C@H]2COC(=O)c2ccccc2)cc1OC` [Example 36, ((2S,3R,4R)-4-(3,4-dimethoxybenzyl)-2-(3,4,5-trimethoxyphenyl)tetrahydro-furan-3-yl)methyl benzoate]: “A (a.r. ≧ 1.50)”; for `CCCC(=O)OC[C@H]1[C@@H](Cc2ccc(OC)c(OC)c2)CO[C@@H]1c1cc(OC)c(OC)c(OC)c1` [Example 37, ((2S,3R,4R)-4-(3,4-dimethoxybenzyl)-2-(3,4,5-trimethoxyphenyl)tetrahydro-furan-3-yl)methyl butyrate]: “AAA (a.r. ≧ 5.0)”; for `COc1ccc(C[C@H]2CO[C@H](c3cc(OC)c(OC)c(OC)c3)[C@H]2COC(=O)C(C)C)cc1OC` [Example 38, ((2S,3R,4R)-4-(3,4-dimethoxybenzyl)-2-(3,4,5-trimethoxyphenyl)tetrahydro-furan-3-yl)methyl isobutyrate]: “AAA (a.r. ≧ 5.0)”. For the molecule `COc1ccc(C[C@H]2CO[C@H](c3cc(OC)c(OC)c(OC)c3)[C@H]2COC(=O)C2CCCCC2)cc1OC` [Example 39, ((2S,3R,4R)-4-(3,4-dimethoxybenzyl)-2-(3,4,5-trimethoxyphenyl)tetrahydro-furan-3-yl)methyl cyclohexanecarboxylate], the a.r. code result in assay [1] was “A (a.r. ≧ 1.50)”. `COc1ccc(C[C@H]2CO[C@H](c3cc(OC)c(OC)c(OC)c3)[C@H]2COC(=O)C2CCCC2)cc1OC` [Example 40, ((2S,3R,4R)-4-(3,4-dimethoxybenzyl)-2-(3,4,5-trimethoxyphenyl)tetrahydro-furan-3-yl)methyl cyclopentanecarboxylate]: in assay [1], the a.r. code result was “AA (a.r. ≧ 2.0)”. On to `COc1ccc(C[C@H]2CO[C@H](c3cc(OC)c(OC)c(OC)c3)[C@H]2COC(=O)C2CC2)cc1OC` [Example 41, ((2S,3R,4R)-4-(3,4-dimethoxybenzyl)-2-(3,4,5-trimethoxyphenyl)tetrahydro-furan-3-yl)methyl cyclopropanecarboxylate], for which the a.r. code entry in assay [1] was “AA (a.r. ≧ 2.0)”.

For `C=CCOC[C@H]1[C@@H](Cc2ccc(OC)c(OC)c2)CO[C@@H]1c1ccc(OC)c(OC)c1` [Example 42, (2S,3R,4R)-3-((allyloxy)methyl)-4-(3,4-dimethoxybenzyl)-2-(3,4-dimethoxy-phenyl)tetrahydrofuran], the a.r. code entry in assay [1] is given as “AAA (a.r. ≧ 5.0)”.

As for `C#CCOC[C@H]1[C@@H](Cc2ccc(OC)c(OC)c2)CO[C@@H]1c1ccc(OC)c(OC)c1` [Example 43, (2S,3R,4R)-4-(3,4-dimethoxybenzyl)-2-(3,4-dimethoxyphenyl)-3-((prop-2-yn-1-yloxy)methyl)tetrahydrofuran], the a.r. code result in assay [1] was “A (a.r. ≧ 1.50)”.

Consider `C/C=C(/C)C(=O)OC[C@H]1[C@@H](Cc2ccc(OC)c(OC)c2)CO[C@@H]1c1ccc(OC)c(OC)c1` [Leoligin, (Z)-((2S,3R,4R)-4-(3,4-dimethoxybenzyl)-2-(3,4-dimethoxyphenyl)tetrahydro-furan-3-yl)methyl 2-methylbut-2-enoate], for which the IC50 in assay [2] was 54.5 µM; in assay [6], 17.9 µM. The “inverse value of IC50 ratio (measure for selective inhibition of ECs compared to SMCs)” value in assay [3] (from cited IC50 values) was 3.0. Moreover, the “IC50 ratio (measure for selective inhibition of SMCs compared to ECs)” value in assay [3] (from cited IC50 values for ECs and SMCs) is on record as 0.33. The “Efficiency towards ECs” value in assay [4] (1 minus fraction of surviving ECs) is on record as 1-0.51 = 0.49. In addition, in assay [4] (HUVECtert, 48 h, resazurin), the “Percentage of surviving ECs” value is given as 0.51 (51%). Further, in assay [1] (inverse of 0.39), the “inverse value of activity ratio (factor of selective inhibition of ECs relative to SMCs)” value was “approximately 2.5”. For the same molecule, in assay [5] (1 minus fraction of surviving SMCs), the “Efficiency towards SMCs” value is 1-0.81 = 0.19. Besides, in assay [5] (rat aortic SMCs, 20 ng/mL PDGF, 48 h, resazurin), the “Percentage of surviving SMCs” value is recorded as 0.81 (81%).
